US5066652A, “Thiomethyl and sulfinylmethyl derivatives having gastric acid antisectetory activity and pharmaceutical compositions containing them” (Chiesi Farmaceutici S.p.A., priority 1988, dated 1991)
Like-named read-outs stand apart in the source and are kept apart here.

Key:
[1] = Toxicity after single administration (acute toxicity, oral); conditions: mouse, in vivo, mice, p.o., lethality 7 days after treatment, Probits method, read-out: Acute Toxicity (DL50 approx. mg/kg p.o.)
Protocol: Toxicity after single administration.
The tests have been carried out in IVA:NMRI (SPF) mice fasted with water ad libitum since 18 hours before treatment.
The compounds were administered by the oral route, at constant volume (10 ml/kg) in a 0.2% aqueous solution of Tween 80.
On the basis of lethality observed 7 days after the treatment, the approximate LD50 were determined according to the Probits method.

[2] = test system: secretion of hydrochloric acid in the stomach (Shay ulcers); assay: Antisecretory activity - Shay ulcers (pylorus-ligated rat); format: in vivo; conditions: for Emax: Rattus norvegicus, α=1 represents 100% inhibition of gastric acid hypersecretion, read-out: α (approximate value of intrinsic activity); for Emax / ED50: 2 h; for ED50: rat, pylorus ligation, intraduodenal or intravenous; for PR (potency ratio in comparison with Omeprazole): ratio of mean ED50 on the 3 parameters of test compound to mean ED50 of omeprazole
Protocol: Antisecretory activity--Shay ulcers The gastric secretory inhibitory activity of the compounds of general formula (I) was determined in case of hypersecretion induced in the rat by ligation of gastroduodenal junction according to the procedure described by Shay (Shay H. et al, Gasgroenterology 5, 43-61, 1945). […] Thereafter, they were fasted for 24 hours, with water ad libitum, which period was sufficient to assure a good gastric emptying, then laparectomized under light ether anesthesia, so as to allow to effect a pylorus ligation as closer as possible to the gastroduodenal junction. Two hours after the ligation, the animals were killed by means of an ether excess and stomaches were removed. Gastric contents were recovered, after filtration through a gauze, and placed in graduated test-tubes and centrifuged at 3000×g for 15 minutes. The following parameters were evaluated on the surnatant: volume (ml); pH; free acidity by conversion of pH into H^+ μEq by means of Moore table (Ann. New York Acad. Sci. 1967, 866-874); titrable acidity, by titration of an amount with 0.02N NaOH, using phenolphtalein as the indicator. […] The results were expressed as percent inhibition of hypersecretion induced by pylorus ligation in the control rats. The obtained results are reported in table 3 as: ED50 (μmol/kg) calculated on the basis of the equation of the linear tract of does-effect curves obtained with the test compounds on volume, free and titrable acidities; […]

[3] = test system: secretion of hydrochloric acid in the stomach; assay: Lumen-perfused rat stomach in situ (histamine-induced hypersecretion); format: in vivo; conditions: for ED50: histamine 35 mcg/kg/min, 3 hours; for ED50 / α (intrinsic activity): intraduodenal; for α (intrinsic activity): histamine; for PR = potency ratio: in comparison with omeprazole
Protocol: Lumen-perfused rat stomach in situ The experiments were done according to Ghosh M. N. and Schild H. O. (Br. J. Pharmacol. 13, 54-61, 1958). […] After a midline abdominal incision, a PVC tube was inserted into the stomach via the esophagus and the stomach was perfused with saline (37° C.) at a rate of 1 ml/min. A second tube draining the pylorus was inserted through the abdominal wall for collection of gastric secretion. […] After equilibration of basal secretion an hypersecretion was induced by infusion of histamine 35 mcg/kg/min, through the femoral vein. […] Mean gastric output was determined for a 3 hours test period following drug administration. The last 30 minutes interval prior to dosing was used as a control. The dose-response relationship was established using the maximum inhibition obtained at each individual dose.

[4] = test system: gastric hemorrhagic lesions induced by absolute ethanol; assay: Protection against gastric lesions induced in rats by necrotizing agents (absolute ethanol); format: in vivo; conditions: po; rat, gavage 30 minutes before 1 ml absolute ethanol; lesion score ≤ 2 considered protected
Protocol: Protection against gastric lesions induced in rats by necrotizing agents
The experiments were done on male rats weighing 260-300 g starved (with free access to water) for 18 hours.
Absolute ethanol was administered by gavage in the volume of 1 ml.
Test substances or the vehicle alone for the controls were given by gavage 30 minutes before the necrotizing agent in a 5% suspension of methylcellulose volume 2.5 ml kg^-1. One hour after administration of the necrotizing agent, the animals were killed and examined for lesions of the glandular portion of the gastric mucosa. The lesions presenting as blackish lesions grouped in patches of varying size, usually parallel to the major axis of the stomach, were scored according to the following arbitrary scale:
1=hyperemic mucosa, or up to 3 small patches;
2=from 4 to 10 small patches;
3=more than 10 small or up to 3 medium-sized patches;
4=from 4 to 6 medium-sized patches;
5=more than 6 medium-sized or up to 3 large patches;
6=from 4 to 6 large patches;
7=from 7 to 10 large patches;
8=more than 10 large patches or extensive necrotic zones.
"Small"0 was defined as up to 2 mm across (max diameter), "medium-sized" as between 2 and 4 mm across and "large" as more than 4 mm across.
Animals with gastric lesion score ≤ 2 were considered protected.
ED50 values were calculated according to Wilcoxon method.
The results are expressed in table 5.

stomach of animals = conditions: animals treated over a long period; cited from earlier work
[5] = free acid output, read-out: ED50 free acid output
[6] = secretion volume, read-out: ED50 volume
[7] = titratable acid output, read-out: ED50 titratable acid output
[8] = read-out: ED50 free acid output
[9] = read-out: ED50 titratable acid output

Row | SMILES | LD50 at 168 h [1] [mg/kg] | Emax [2] [%] | ED50 [2, 5] [µmol/kg] | ED50 [2, 6] [µmol/kg] | ED50 [2, 7] [µmol/kg] | PR (potency ratio in comparison with Omeprazole) [2] | ED50 [3, 8] [µmol/kg] | ED50 [3, 9] [µmol/kg] | α (intrinsic activity) [3] | PR = potency ratio [3] | ED50 [4] [mg/kg] | carcinomas at the bottom of the stomach (stomach of animals)
1 | CN(C)c1ccccc1CSc1nccn1C [XI, 1-methyl-2-[2'-(N,N-dimethylanilyl)methylthio]imidazole. 2HCl] | ~450 | 100 | 31.9 | 40 | 29.6 | 12,2 | 60.6 | 40.9 | 1 | 22.4 | 20 | 
2 | COc1ccc2[nH]c([S+]([O-])Cc3ncc(C)c(OC)c3C)nc2c1 (centres unmarked) [Omeprazole, reference compound] |  | 100 | 1.8 | 4.2 | 2.3 |  | 2.23 | 2.3 | 1 |  | 73 | high incidence of carcinomas
3 | CN(C)c1ccccc1CSc1nccn1-c1cccc(F)c1 [XIX, 1-(3'-fluorophenyl)-2-[2'-(N,N-dimethylanilyl)methylthio]imidazole.2HCl] | ~1000 | 100 | 47.3 | 108 | 64.3 | 26,4 | 32.2 | 26.7 | 1 | 13.0 | 70 | 
4 | c1ccc(-n2ccnc2SCc2nc3ccccc3[nH]2)cc1 [XXII, 1-phenyl-2-[2'-(benzimidazolyl)methylthio]imidazole.2HCl] | ~1000 | 80 | 16.8 | 30.5 | 22.3 | 8,4 |  |  |  |  | 63 | 
